Paper PMC7567097, “A nanoluciferase SARS-CoV-2 for rapid neutralization testing and screening of anti-infective drugs for COVID-19” (Nature Communications, 2020)
Read-outs that look alike come from different tables or passages of the source.

How the values were obtained:
in vitro = settings: human
SARS-CoV-2-Nluc = test: microbe, parasite or virus in culture; format: cell-based
[1] = Severe acute respiratory syndrome coronavirus 2, 48 h
[2] = Severe acute respiratory syndrome coronavirus 2, read-out: EC50 (µM) Replicate 1
[3] = Severe acute respiratory syndrome coronavirus 2, read-out: EC50 (µM) Replicate 2
[4] = read-out: EC50 (µM) Replicate 1
[5] = read-out: EC50 (µM) Replicate 2

Compound | CC50 (in vitro; CC50) | CC50 (in vitro; CC50 (µM) Replicate 1) | CC50 (in vitro; CC50 (µM) Replicate 2) | EC50 (SARS-CoV-2-Nluc; [1]) | EC50 (SARS-CoV-2-Nluc; [2]) | EC50 (SARS-CoV-2-Nluc; [3]) | EC50 (SARS-CoV-2-Nluc; read-out: EC50) | EC50 (SARS-CoV-2-Nluc; [4]) | EC50 (SARS-CoV-2-Nluc; [5]) | Selectivity index (SI) = CC50/EC50 (SARS-CoV-2-Nluc) | EC50 (SARS-CoV-2-Nluc)
COC[C@H]1C[C@@H](c2ncc(-c3ccc4c(c3)COc3cc5c(ccc6nc([C@@H]7CC[C@H](C)N7C(=O)[C@@H](NC(=O)OC)C(C)C)[nH]c65)cc3-4)[nH]2)N(C(=O)[C@H](NC(=O)OC)c2ccccc2)C1 [Velpatasvir] | > 50 µM | > 50 µM | > 50 µM | > 10 µM | > 10 µM | > 10 µM | – | – | – | – | –
C=C1[C@H](CO)[C@@H](O)C[C@@H]1n1cnc2c(=O)[nH]c(N)nc21 [Entecavir] | > 50 µM | > 50 µM | > 50 µM | > 10 µM | > 10 µM | > 10 µM | – | – | – | – | –
CC1=CC[C@H](C(=O)N(c2cc(C#CC(C)(C)C)sc2C(=O)O)[C@H]2CC[C@](O)(CO[C@H]3CCOC3)CC2)CC1 [Radalbuvir] | > 50 µM | > 50 µM | > 50 µM | > 10 µM | > 10 µM | > 10 µM | – | – | – | – | –
NC(=O)c1nc(F)c[nH]c1=O [Favipiravir (T-705), Favipiravir] | > 50 µM | > 50 µM | > 50 µM | > 10 µM | > 10 µM | > 10 µM | – | – | – | – | –
CC[C@@H]1C[C@]1(NC(=O)[C@@H]1C[C@@H](Oc2cc(-c3csc(NC(C)C)n3)nc3c(Cl)c(OCCN4CCOCC4)ccc23)CN1C(=O)[C@@H](NC(=O)O[C@@H]1C[C@@H]2C[C@@H]2C1)C(C)(C)C)C(=O)O [GS-9451] | > 50 µM | > 50 µM | > 50 µM | > 10 µM | > 10 µM | > 10 µM | – | – | – | – | –
CCOc1nc(N)nc2c1ncn2[C@@H]1O[C@@H]2COP(=O)(OC(C)C)O[C@H]2[C@@]1(C)F (some centres unmarked) [PSI-352938] | > 50 µM | > 50 µM | > 50 µM | > 10 µM | > 10 µM | > 10 µM | – | – | – | – | –
CC(C)CN(C[C@@H](O)[C@H](Cc1ccccc1)NC(=O)O[C@H]1CO[C@H]2OCC[C@H]21)S(=O)(=O)c1ccc(N)cc1 [Darunavir] | > 50 µM | > 50 µM | > 50 µM | > 10 µM | > 10 µM | > 10 µM | – | – | – | – | –
CC(C)c1nc(CN(C)C(=O)N[C@H](C(=O)N[C@@H](Cc2ccccc2)C[C@H](O)[C@H](Cc2ccccc2)NC(=O)OCc2cncs2)C(C)C)cs1 [Ritonavir] | – | – | – | > 10 µM | > 10 µM | > 10 µM | – | – | – | – | –
COC(=O)N[C@H](C(=O)N1CC2(CC2)C[C@H]1c1ncc(-c2ccc3c(c2)C(F)(F)c2cc(-c4ccc5nc([C@@H]6[C@H]7CC[C@H](C7)N6C(=O)[C@@H](NC(=O)OC)C(C)C)[nH]c5c4)ccc2-3)[nH]1)C(C)C [Ledapisvir] | > 50 µM | > 50 µM | > 50 µM | > 10 µM | > 10 µM | > 10 µM | – | – | – | – | –
CC(C)OC(=O)[C@H](C)N[P@](=O)(OC[C@H]1O[C@@](C#N)(c2ccc3c(N)ncnn23)[C@](C)(O)[C@@H]1OC(=O)C(C)C)Oc1ccccc1 [GS-6620] | > 50 µM | > 50 µM | > 50 µM | > 10 µM | > 10 µM | > 10 µM | – | – | – | – | –
CCC(CC)O[C@@H]1C=C(C(=O)O)C[C@H](N)[C@H]1NC(C)=O [Oseltamivir carboxylate] | > 50 µM | > 50 µM | > 50 µM | > 10 µM | > 10 µM | > 10 µM | – | – | – | – | –
Nc1ccn(C[C@@H](CO)OCP(=O)(O)O)c(=O)n1 [Cidofovir] | > 50 µM | > 50 µM | > 50 µM | > 10 µM | > 10 µM | > 10 µM | – | – | – | – | –
C=CC(=O)N1CCC[C@@H](n2nc(-c3ccc(Oc4ccccc4)cc3)c3c(N)ncnc32)C1 [Ibrutinib] | > 50 µM | – | – | > 10 µM | – | – | – | – | – | – | –
Nc1ccn([C@@H]2O[C@@](CO)(CCl)[C@@H](O)[C@H]2F)c(=O)n1 [ALS-8112] | > 50 µM | > 50 µM | > 50 µM | > 10 µM | > 10 µM | > 10 µM | – | – | – | – | –
CC(C)(C)NC(=O)[C@@H]1CN(Cc2cccnc2)CCN1C[C@@H](O)C[C@@H](Cc1ccccc1)C(=O)N[C@H]1c2ccccc2C[C@H]1O [Indinavir] | > 50 µM | > 50 µM | > 50 µM | > 10 µM | > 10 µM | > 10 µM | – | – | – | – | –
COc1ccc2c(O[C@@H]3C[C@H]4C(=O)N[C@]5(P(=O)(O)Cc6c(F)cccc6F)C[C@H]5CCCCCCC[C@H](NC(=O)OC5CCCC5)C(=O)N4C3)cc(-c3csc(NC(C)C)n3)nc2c1Cl [GS-9256] | 31.8 ± 10.9 µM | 39.5 µM | 24.1 µM | > 10 µM | > 10 µM | > 10 µM | – | – | – | – | –
Voxilaprevir | – | – | – | – | – | – | > 10 µM | > 10 µM | > 10 µM | – | –
CC#CC(=O)N1CC[C@@H](n2c(=O)n(-c3ccc(Oc4ccccc4)cc3)c3c(N)ncnc32)C1 [Tirabrutinib] | > 50 µM | > 50 µM | > 50 µM | > 10 µM | > 10 µM | > 10 µM | – | – | – | – | –
CCOC(=O)/C=C/[C@H](C[C@@H]1CCNC1=O)NC(=O)[C@@H](CC(=O)[C@@H](NC(=O)c1cc(C)on1)C(C)C)Cc1ccc(F)cc1 [Rupintrivir] | > 50 µM | > 50 µM | > 50 µM | 1.87 ± 0.47 µM | 1.53 µM | 2.2 µM | – | – | – | >26.7 | –
CC(C)c1nc(CN(C)C(=O)N[C@@H](CCN2CCOCC2)C(=O)N[C@H](CC[C@H](Cc2ccccc2)NC(=O)OCc2cncs2)Cc2ccccc2)cs1 [Cobicistat] | 47.3 ± 2.5 µM | 45.6 µM | 49.1 µM | 2.7 µM | 2.6 µM | 2.88 µM | – | – | – | 17.3 | 2.74 ± 0.2 µM
CC(C)OC(=O)[C@H](C)N[P@](=O)(OC[C@H]1O[C@@H](n2ccc(=O)[nH]c2=O)[C@](C)(F)[C@@H]1O)Oc1ccccc1 [Sofosbuvir] | > 50 µM | > 50 µM | > 50 µM | > 10 µM | > 10 µM | > 10 µM | – | – | – | – | –
O=C1c2c(O)c(=O)ccn2N([C@@H]2c3ccccc3SCc3c2ccc(F)c3F)[C@@H]2COCCN12 [Baloxavir] | 47 ± 1.3 µM | 46 µM | 47.9 µM | > 10 µM | > 10 µM | > 10 µM | – | – | – | – | –
Fc1ccccc1-c1nc2ccn(Cc3ccc(-c4ccc(C(F)(F)F)cc4C(F)(F)F)nn3)cc-2n1 [Tegobuvir] | 17.9 ± 3.1 µM | 20 µM | 15.7 µM | > 10 µM | > 10 µM | > 10 µM | – | – | – | – | –
NC(=O)c1ncn([C@@H]2O[C@H](CO)[C@@H](O)[C@H]2O)n1 [Ribavirin] | > 50 µM | > 50 µM | > 50 µM | > 10 µM | > 10 µM | > 10 µM | – | – | – | – | –
CCOC(=O)[C@H](C)N[P@](=O)(CO[C@@H]1C=C(F)[C@H](n2cnc3c(N)ncnc32)O1)Oc1ccccc1 [Rovafovir (GS-9131), Rovafovir] | – | – | – | – | – | – | > 10 µM | > 10 µM | > 10 µM | – | –
Cc1cn2nc([C@@H]3CCCCN3C(=O)c3cc(Cl)ccc3NS(C)(=O)=O)cc2nc1N1CC[C@H](N)C1 [Presatovir] | – | – | – | 2.53 ± 0.69 µM | 3.01 µM | 2.04 µM | – | – | – | – | –
